Measurements published in patent US8716180B2 (priority 2005, dated 2014).
Read-outs that look alike come from different tables or passages of the source.

System: GFP genetically modified strain of F. graminearum
Format: in vivo, Fusarium graminearum
Settings: seed treatment 5 g a.i./100 kg seeds

Measured: Intensity of F. graminearum (PCR analysis: 0 to 4 scale)

N#Cc1c[nH]cc1-c1cccc2c1OC(F)(F)O2 [Lot B, fludioxonil]
0: Beginning of earing (GS 51), 1st internode | Beginning of earing (GS 51), 2nd internode | Beginning of earing (GS 51), 3rd internode | Beginning of earing (GS 51), 4th internode | Beginning of earing (GS 51), ear | Ear 1-2 cm (GS 31), First internode | Ear 1-2 cm (GS 31), Future internodes and ear | Ear 1-2 cm (GS 31), Second internode | End of tillering (GS 29), Above bottom of the plant (0.5 cm) | End of tillering (GS 29), Bottom of the plant (0.5 cm) | End of tillering (GS 29), Secondary roots | End of tillering (GS 29), primary roots | End of tillering (GS 29), rhizome | Full maturity (GS 94), 1st internode | Full maturity (GS 94), 2nd internode | Full maturity (GS 94), 3rd internode | Full maturity (GS 94), 4th internode | Full maturity (GS 94), 5th internode | Full maturity (GS 94), Ear + grains
